The source of these data is PMC11996864, “A small-molecule inhibitor of BCL10-MALT1 interaction abrogates progression of diffuse large B cell lymphoma” (The Journal of Clinical Investigation, 2025).

Values joined by “and” are separate entries in the source; they are usually repeats but may differ in a detail not shown here. Equal values may be shown once.

One assay concerns TMD8 cells. Kind of assay: cells. Also noted: species or system TMD8 or OCI-Ly3; Inhibition of spontaneous IL-10 secretion from ABC-DLBCL cells, human IL-10 ELISA of supernatants. To be noted: Homo sapiens, TMD8, 20 h; IL-10 secretion; read-out: IC50 (µM) IL-10 inhibition. How it is done: Cytokine ELISAs. Cytokines in cell culture supernatants were measured 20-24h after treatment with 0, 0.01, 0.03, 0.1, 0.3, 1, or 3 µM of compounds using the following ELISA kits according to the manufacturer’s instructions: Human IL-2 ELISA (BioLegend Cat# 431804), Human IL-6 ELISA (BioLegend Cat# 430504), and Human IL-10 ELISA (BioLegend Cat# 430604). TMD8 and OCI-Ly3 cells were treated with specific doses of compounds in serum-free media for 20 hours. Jurkat T cells were pretreated with specific doses of compounds for 8 hours in serum-free media, then stimulated with PMA/ionomycin for 16 hours prior to the collection of supernatants. Mouse splenocytes were isolated from spleens of C57/BL6 mice by passing spleens through a 70 micron filter followed by red blood cell lysis using ACK lysing buffer (Quality Biologics, Cat# 118-156-101). […] Supernatant was collected at 24 hours and mouse IL-2 levels were analyzed via ELISA (R&D Systems, Cat# DY402-05). IL-6 and IL-10 are NF-κB–induced cytokines that promote the proliferation and survival of malignant B cells through both autocrine and paracrine mechanisms ([44]), and are negative prognostic factors in ABC-DLBCL ([45], [46]). ABC-DLBCL cell lines spontaneously secrete substantial levels of IL-6 and IL-10, whereas GCB-DLBCL cell lines express only a negligible amount of these cytokines ([24]). […] The IC50 for inhibition of cytokine secretion by each compound in each cell line is reported in Supplemental Table 1.  Figure 4 M1i-124 and M1i-124d1 inhibit MALT1 protease and scaffolding functions, and MALT1-dependent cytokine secretion, in ABC-DLBCL cells. (A and B) Effect of 1 μM compound pretreatment on constitutive RelB cleavage (A) and IκB phosphorylation (B) within TMD8 cells. Representative Western blots are shown along with quantification (mean ± SEM; n = 2). (C) IL6 and IL10 mRNA levels in TMD8 cells treated with 1 μM M1i-124 or M1i-124d1 (mean ± SEM; n = 6). […] Statistical analyses were performed using 1-way ANOVA and Dunnett’s multiple-comparison test. **P < 0.01, ***P < 0.001, ****P < 0.0001.

Assay [1] deals with IL-2 secretion from Jurkat T cells. Kind of assay: Secreted IL-2 ELISA after PMA/Iono. It counts as cell-based, human. The note with it: PMA/Iono treated, Suppl Fig. 4A. Background: An ELISA detects its analyte on a solid surface through an enzyme-linked reagent.

The term IC50 denotes the concentration needed to halve the response being measured. Regarding `COc1ccc(CNS(=O)(=O)c2ccc(Cc3ccc(S(=O)(=O)NCc4ccc(OC)cc4)cc3)cc2)cc1` [M1i-124d1], the IC50 in the assay on TMD8 cells worked out at 0.2 µM.
For `CN1CCCC(CN2c3ccccc3Sc3ccccc32)C1` (stereo not drawn) [Mepazine, mepazine, reference compound], in assay [1] (Homo sapiens, Jurkat, read-out: IL-2 protein level (% of control)), the activity at 5 µM came out at 29.9%. In addition, in assay [1] (5 uM), the “IL-2 protein level (% of control)” value is 22.8269 % of control and 31.0927 % of control.
